Laboratory results taken from US20050250752A1, “Cembranoids with chemopreventive activity” (priority 2002, published 2005).

Legend:
Raji cells = experiment: Viability of treated Raji cells (Trypan Blue staining); format: cell-based
Experimental: (§1) The inhibition of EBV-EA activation was assayed using Raji cells (virus non-producer type). The indicator cells (Raji, 1×10^6/ml) were incubated at 37° C. for 48 h in 1 ml of medium containing n-butyric acid (4 mmol), TPA(12-O-tetradecanoylphorbol 13-acetate)(32 pmol=20 ng in 2 μl DMSO) as inducer and various amounts of test compounds in 5 μl DMSO. Smears were made from the cell suspension, and the activated cells, which were stained by EBV-EA positive serum from nasopharygeal carcinoma patients were detected by an indirect immunofluorescence technique. For each compound, assays were performed in triplicate. The average EBV-EA induction of the test compounds was expressed as a relative ratio to the control experiment (100%), which was carried out only with n-butyric acid plus TPA. The viability of treated Raji cells was assayed by the Trypan Blue staining method.

[1] = tested on: Epstein-Barr virus early antigen (EBV-EA) of Raji cells induced by tumor promoter (TPA); experiment: Inhibition of EBV-EA activation induced by TPA in Raji cells; format: cell-based; details: TPA 32 pmol, Raji cells, 48 h
Experimental: as §1

[2] = tested on: papillomas (mouse skin carcinogenesis induced by DMBA/TPA); experiment: Two-stage mouse skin carcinogenesis model induced by DMBA/TPA; format: in vivo, mouse (female ICR); details: topical 85 nm 1 hour before TPA, ICR mice
Experimental: In the two-stage mouse skin carcinogenesis model induced by DMBA/TPA, the animals (specific pathogen-free female ICR, 6 weeks old) were divided into 5 groups, 15 mice each. The back of each mouse was shaved with surgical clippers, and the mice were topically treated with DMBA (100 μg, 390 nmol) in acetone (0.1 ml) as an initiation treatment. For the positive control group, 1 week after initiation with DMBA, mice were promoted by the application with TPA (1 μg, 1.7 nmol) in acetone (0.1 ml) twice a week. The other four groups received a topical application of each of the sarcophine semi-synthetic derivatives (85 nm) 1 hour before application of the tumor promoter. The incidence of papillomas was observed weekly for 20 weeks. The percentage of mice bearing papillomas and the average number of papillomas per mouse were recorded.

[3] = x 1000 mol ratio/TPA (32 nmol/mL)

C/C(CO)=C1\CC/C(C)=C/CCC2(C)OC2CC/C(C)=C/C1O (stereo not drawn) [Compound 10]
viability percentage of Raji cells (indicator cells) (Raji cells; x 10 mol ratio/TPA): > 80%
viability percentage of Raji cells (indicator cells) (Raji cells; x 100 mol ratio/TPA): > 80%
viability percentage of Raji cells (indicator cells) (Raji cells; x 500 mol ratio/TPA): > 80%
viability percentage of Raji cells (indicator cells) (Raji cells; [3]): 60%
EBV-EA induction, percentage relative to the positive control value (100%) ([1]; x 10 mol ratio/TPA): 94.1%
EBV-EA induction, percentage relative to the positive control value (100%) ([1]; x 100 mol ratio/TPA): 75.5%
EBV-EA induction, percentage relative to the positive control value (100%) ([1]; x 500 mol ratio/TPA): 57.3%
EBV-EA induction, percentage relative to the positive control value (100%) [1, 3]: 9.6%
Papilloma Bearer (%) ([2]; week 1 of promotion): 0.0%
Papillomas/mouse ([2]; week 1 of promotion): 0.0
Papilloma Bearer (%) ([2]; week 2 of promotion): 0.0%
Papillomas/mouse ([2]; week 2 of promotion): 0.0
Papilloma Bearer (%) ([2]; week 3 of promotion): 0.0%
Papillomas/mouse ([2]; week 3 of promotion): 0.0
Papilloma Bearer (%) ([2]; week 4 of promotion): 0.0%
Papillomas/mouse ([2]; week 4 of promotion): 0.0
Papilloma Bearer (%) ([2]; week 5 of promotion): 0.0%
Papillomas/mouse ([2]; week 5 of promotion): 0.0
Papilloma Bearer (%) ([2]; week 6 of promotion): 0.0%
Papillomas/mouse ([2]; week 6 of promotion): 0.0
Papilloma Bearer (%) ([2]; week 7 of promotion): 0.0%
Papillomas/mouse ([2]; week 7 of promotion): 0.0
Papilloma Bearer (%) ([2]; week 8 of promotion): 13.3%
Papillomas/mouse ([2]; week 8 of promotion): 0.5
Papilloma Bearer (%) ([2]; week 9 of promotion): 13.3%
Papillomas/mouse ([2]; week 9 of promotion): 0.9
Papilloma Bearer (%) ([2]; week 10 of promotion): 26.6%
Papillomas/mouse ([2]; week 10 of promotion): 1.3
Papilloma Bearer (%) ([2]; week 11 of promotion): 33.3%
Papillomas/mouse ([2]; week 11 of promotion): 1.8
Papilloma Bearer (%) ([2]; week 12 of promotion): 40.0%
Papillomas/mouse ([2]; week 12 of promotion): 2.1
Papilloma Bearer (%) ([2]; week 13 of promotion): 46.6%
Papillomas/mouse ([2]; week 13 of promotion): 2.3
Papilloma Bearer (%) ([2]; week 14 of promotion): 53.3%
Papillomas/mouse ([2]; week 14 of promotion): 2.5
Papilloma Bearer (%) ([2]; week 15 of promotion): 60.0%
Papillomas/mouse ([2]; week 15 of promotion): 2.7
Papilloma Bearer (%) ([2]; week 16 of promotion): 73.3%
Papillomas/mouse ([2]; week 16 of promotion): 3.1
Papilloma Bearer (%) ([2]; week 17 of promotion): 73.3%
Papillomas/mouse ([2]; week 17 of promotion): 3.6
Papilloma Bearer (%) ([2]; week 18 of promotion): 80.0%
Papillomas/mouse ([2]; week 18 of promotion): 4.0
Papilloma Bearer (%) ([2]; week 19 of promotion): 80.0%
Papillomas/mouse ([2]; week 19 of promotion): 4.6
Papilloma Bearer (%) ([2]; week 20 of promotion): 80.0%
Papillomas/mouse ([2]; week 20 of promotion): 4.8

CC1=CC=C([C@@](C)(O)CO)C[C@H](O)C(C)=CCCC2(C)OC2CC1 (stereo partly drawn) [Compound 12, 7,8-Epoxy-1,3,11-cembratriene-13S(β),15R(α),16-triol]
viability percentage of Raji cells (indicator cells) (Raji cells; x 10 mol ratio/TPA): > 80%
viability percentage of Raji cells (indicator cells) (Raji cells; x 100 mol ratio/TPA): > 80%
viability percentage of Raji cells (indicator cells) (Raji cells; x 500 mol ratio/TPA): > 80%
viability percentage of Raji cells (indicator cells) (Raji cells; [3]): 60%
EBV-EA induction, percentage relative to the positive control value (100%) ([1]; x 10 mol ratio/TPA): 93.8%
EBV-EA induction, percentage relative to the positive control value (100%) ([1]; x 100 mol ratio/TPA): 74.6%
EBV-EA induction, percentage relative to the positive control value (100%) ([1]; x 500 mol ratio/TPA): 55.8%
EBV-EA induction, percentage relative to the positive control value (100%) [1, 3]: 5.9%
Papilloma Bearer (%) ([2]; week 1 of promotion): 0.0%
Papillomas/mouse ([2]; week 1 of promotion): 0.0
Papilloma Bearer (%) ([2]; week 2 of promotion): 0.0%
Papillomas/mouse ([2]; week 2 of promotion): 0.0
Papilloma Bearer (%) ([2]; week 3 of promotion): 0.0%
Papillomas/mouse ([2]; week 3 of promotion): 0.0
Papilloma Bearer (%) ([2]; week 4 of promotion): 0.0%
Papillomas/mouse ([2]; week 4 of promotion): 0.0
Papilloma Bearer (%) ([2]; week 5 of promotion): 0.0%
Papillomas/mouse ([2]; week 5 of promotion): 0.0
Papilloma Bearer (%) ([2]; week 6 of promotion): 0.0%
Papillomas/mouse ([2]; week 6 of promotion): 0.0
Papilloma Bearer (%) ([2]; week 7 of promotion): 0.0%
Papillomas/mouse ([2]; week 7 of promotion): 0.0
Papilloma Bearer (%) ([2]; week 8 of promotion): 13.3%
Papillomas/mouse ([2]; week 8 of promotion): 0.2
Papilloma Bearer (%) ([2]; week 9 of promotion): 20.0%
Papillomas/mouse ([2]; week 9 of promotion): 0.5
Papilloma Bearer (%) ([2]; week 10 of promotion): 26.6%
Papillomas/mouse ([2]; week 10 of promotion): 1.1
Papilloma Bearer (%) ([2]; week 11 of promotion): 33.3%
Papillomas/mouse ([2]; week 11 of promotion): 1.5
Papilloma Bearer (%) ([2]; week 12 of promotion): 33.3%
Papillomas/mouse ([2]; week 12 of promotion): 2.0
Papilloma Bearer (%) ([2]; week 13 of promotion): 40.0%
Papillomas/mouse ([2]; week 13 of promotion): 2.2
Papilloma Bearer (%) ([2]; week 14 of promotion): 46.6%
Papillomas/mouse ([2]; week 14 of promotion): 2.7
Papilloma Bearer (%) ([2]; week 15 of promotion): 53.3%
Papillomas/mouse ([2]; week 15 of promotion): 3.1
Papilloma Bearer (%) ([2]; week 16 of promotion): 60.0%
Papillomas/mouse ([2]; week 16 of promotion): 3.7
Papilloma Bearer (%) ([2]; week 17 of promotion): 66.6%
Papillomas/mouse ([2]; week 17 of promotion): 4.0
Papilloma Bearer (%) ([2]; week 18 of promotion): 73.3%
Papillomas/mouse ([2]; week 18 of promotion): 4.1
Papilloma Bearer (%) ([2]; week 19 of promotion): 73.3%
Papillomas/mouse ([2]; week 19 of promotion): 4.4
Papilloma Bearer (%) ([2]; week 20 of promotion): 80.0%
Papillomas/mouse ([2]; week 20 of promotion): 4.6
